Laboratory results taken from PubChem BioAssay AID330 (DTP/NCI, 2004).
Where “and” joins values, the source holds several entries; their conditions need not be identical. Equal values may be shown once. Toxic doses and inconclusive results are not listed. How the source made its calls: active means survival T/C of 150% or more; inactive means T/C below 125% in these data.

Test system: P388 leukemia ip, CD2F1 mice, survival T/C
Assay: NCI In Vivo Anticancer Drug Screen. Data for tumor model P388 Leukemia (intraperitoneal) in CD2F1 (CDF1) mice
Details: endpoint: median survival time, higher = longer survival
How it was run: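 Mice carrying the transplanted tumor received test compound or vehicle. Survival was recorded in each group, and the value is the treated-group measurement divided by that of the vehicle-treated control group.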

[1] = dose: 100.0 mg/kg/injection, schedule: Q04DX002 (ip), vehicle: saline with Tween-80
[2] = dose: 200.0 mg/kg/injection, schedule: Q04DX002 (ip), vehicle: saline with Tween-80
[3] = dose: 400.0 mg/kg/injection, schedule: Q04DX002 (ip), vehicle: saline with Tween-80
[4] = dose: 100.0 mg/kg/injection, schedule: Q01DX001 (ip), vehicle: saline with Tween-80
[5] = dose: 200.0 mg/kg/injection, schedule: Q01DX001 (ip), vehicle: saline with Tween-80
[6] = dose: 100.0 mg/kg/injection, schedule: Q01DX009 (ip), vehicle: saline with Tween-80
[7] = dose: 12.5 mg/kg/injection, schedule: Q01DX005 (ip), vehicle: saline with Tween-80
[8] = dose: 25.0 mg/kg/injection, schedule: Q01DX005 (ip), vehicle: saline with Tween-80
[9] = dose: 50.0 mg/kg/injection, schedule: Q01DX005 (ip), vehicle: saline with Tween-80
[10] = dose: 100.0 mg/kg/injection, schedule: Q01DX005 (ip), vehicle: saline with Tween-80
[11] = dose: 60.0 mg/kg/injection, schedule: Q01DX005 (ip), vehicle: saline with Tween-80
[12] = dose: 12.5 mg/kg/injection, schedule: Q04DX003 (ip), vehicle: saline with Tween-80
[13] = dose: 25.0 mg/kg/injection, schedule: Q04DX003 (ip), vehicle: saline with Tween-80
[14] = dose: 120.0 mg/kg/injection, schedule: Q01DX005 (ip), vehicle: saline with Tween-80
[15] = dose: 240.0 mg/kg/injection, schedule: Q01DX005 (ip), vehicle: saline with Tween-80
[16] = dose: 50.0 mg/kg/injection, schedule: Q01DX009 (ip), vehicle: Klucel (hydroxypropylcellulose) (HPC)
[17] = dose: 100.0 mg/kg/injection, schedule: Q01DX009 (ip), vehicle: Klucel (hydroxypropylcellulose) (HPC)

Measured: T/C

CC(=O)NCN(C)[N+](=O)[O-]
inactive: dose: 60.0 mg/kg/injection, schedule: Q01DX005 (ip), vehicle: saline 115 % of control | dose: 120.0 mg/kg/injection, schedule: Q01DX005 (ip), vehicle: saline 97 % of control | dose: 240.0 mg/kg/injection, schedule: Q01DX005 (ip), vehicle: saline 108 % of control

COc1ccc(C(=O)CC(C(=O)O)c2ccc3c(c2)OCO3)cc1OC (centres undefined)
inactive: dose: 100.0 mg/kg/injection, schedule: Q04DX003 (ip), vehicle: saline with Tween-80 100 % of control | dose: 200.0 mg/kg/injection, schedule: Q04DX003 (ip), vehicle: saline with Tween-80 90 % of control | dose: 400.0 mg/kg/injection, schedule: Q04DX003 (ip), vehicle: saline with Tween-80 90 % of control

COC(=O)/C(=C/c1ccc(/C=C(/C(=O)O)c2ccc(OC)cc2)o1)c1ccc(OC)cc1
inactive: [1] 96 % of control | [2] 92 % of control | [3] 101 % of control

COc1cc(OCc2ccccc2)c(CC(=O)O)c([N+](=O)[O-])c1
inactive: [4] 100 % of control | [5] 100 % of control | dose: 400.0 mg/kg/injection, schedule: Q01DX001 (ip), vehicle: saline with Tween-80 90 % of control

C=CCn1c(-c2cccc(O)c2)n[nH]c1=S
inactive: dose: 25.0 mg/kg/injection, schedule: Q01DX009 (ip), vehicle: saline with Tween-80 104 % of control | dose: 50.0 mg/kg/injection, schedule: Q01DX009 (ip), vehicle: saline with Tween-80 115 % of control | [6] 96 % of control

CCOc1cccc2c(NCCCCCCCCNc3c4ccccc4nc4c(OCC)cccc34)c3ccccc3nc12
active: dose: 3.75 mg/kg/injection, schedule: Q01DX009 (ip), vehicle: other 166 % of control | dose: 7.5 mg/kg/injection, schedule: Q01DX009 (ip), vehicle: other 157 % of control

C=CCN(CC=C)P(=O)(N(CC=C)CC=C)N(CC=C)CC=C
inactive: dose: 50.0 mg/kg/injection, schedule: Q01DX005 (ip), vehicle: Klucel (hydroxypropylcellulose) (HPC) 99 % of control | dose: 100.0 mg/kg/injection, schedule: Q01DX005 (ip), vehicle: Klucel (hydroxypropylcellulose) (HPC) 99 % of control

O=C(Nc1cccc(O)c1)C(Cl)=C(Cl)Cl
inactive: dose: 3.12 mg/kg/injection, schedule: Q01DX005 (ip), vehicle: DMSO 109 % of control | dose: 6.25 mg/kg/injection, schedule: Q01DX005 (ip), vehicle: DMSO 104 % of control | dose: 6.25 mg/kg/injection, schedule: Q01DX005 (ip), vehicle: saline with Tween-80 101 % of control | dose: 12.5 mg/kg/injection, schedule: Q01DX005 (ip), vehicle: DMSO 109 % of control | [7] 115 % of control | dose: 25.0 mg/kg/injection, schedule: Q01DX005 (ip), vehicle: DMSO 108 % of control | [8] 110 % of control | dose: 50.0 mg/kg/injection, schedule: Q01DX005 (ip), vehicle: DMSO 104 % of control

O=C(O)c1cc(-c2ccc(Cl)cc2)nc2cc(Cl)ccc12
inactive: [9] 98 % of control | [10] 100 % of control

CCCCOP(O)(=S)OCCCC.[Eu]
inactive: [1] 96 % of control | [2] 91 % of control | [3] 90 % of control

OC1COc2ccccc2OCCOCCOc2ccccc2OC1
inactive: dose: 15.0 mg/kg/injection, schedule: Q01DX005 (ip), vehicle: saline with Tween-80 100 % of control | dose: 30.0 mg/kg/injection, schedule: Q01DX005 (ip), vehicle: saline with Tween-80 94 % of control | [11] 95 % of control and 96 % of control

CNS(=O)(=O)c1ccc2c(c1)nc(SC)n2C
inactive: [6] 100 % of control | dose: 200.0 mg/kg/injection, schedule: Q01DX009 (ip), vehicle: saline with Tween-80 100 % of control | dose: 400.0 mg/kg/injection, schedule: Q01DX009 (ip), vehicle: saline with Tween-80 95 % of control

CCCC(CCC)(C(=O)Nc1ccc2nc(C)cc(N)c2c1)C(=O)Nc1ccc2nc(C)cc(N)c2c1
inactive: [9] 91 % of control | [10] 96 % of control

C=C[CH2][Sn]([c]1ccccc1)([c]1ccccc1)[c]1ccccc1
inactive: dose: 6.25 mg/kg/injection, schedule: Q04DX003 (ip), vehicle: saline with Tween-80 92 % of control | [12] 100 % of control | [13] 101 % of control

COC1=CC2(C=CC1=O)CCC(=O)O2 (centres undefined)
inactive: [7] 119 % of control | [8] 111 % of control | [9] 115 % of control and 113 % of control | [10] 108 % of control

Cc1c2cc[n+](C[n+]3ccc4c(C)c5[nH]c6ccccc6c5c(C)c4c3)cc2c(C)c2c1[nH]c1ccccc12
inactive: dose: 12.5 mg/kg/injection, schedule: Q04DX002 (ip), vehicle: DMSO 107 % of control | dose: 25.0 mg/kg/injection, schedule: Q04DX002 (ip), vehicle: DMSO 111 % of control | dose: 50.0 mg/kg/injection, schedule: Q04DX002 (ip), vehicle: DMSO 115 % of control | dose: 100.0 mg/kg/injection, schedule: Q04DX002 (ip), vehicle: DMSO 121 % of control

COc1ccc2nc(-n3[nH]c(C)c(-c4cc(C)nn4-c4ccccc4)c3=O)cc(C)c2c1
inactive: [4] 98 % of control | [5] 91 % of control

COCCOC(=O)Cc1ccc(OC)c(OC)c1
inactive: dose: 100.0 mg/kg/injection, schedule: Q01DX009 (ip), vehicle: saline 91 % of control | dose: 200.0 mg/kg/injection, schedule: Q01DX009 (ip), vehicle: saline 100 % of control | dose: 400.0 mg/kg/injection, schedule: Q01DX009 (ip), vehicle: saline 104 % of control

C1CNCCNCCNCCN1
inactive: dose: 12.5 mg/kg/injection, schedule: Q01DX009 (ip), vehicle: water 101 % of control | dose: 25.0 mg/kg/injection, schedule: Q01DX009 (ip), vehicle: water 96 % of control | dose: 50.0 mg/kg/injection, schedule: Q01DX009 (ip), vehicle: water 100 % of control | dose: 100.0 mg/kg/injection, schedule: Q01DX009 (ip), vehicle: water 101 % of control

COC(=O)C(=O)c1c(C(=O)OC)nc2nnc(N)n2c1C1CC1
inactive: [11] 100 % of control | [14] 107 % of control | [15] 105 % of control

C1CSCCCSCCCSCCCSC1
inactive: [16] 100 % of control | [17] 99 % of control | dose: 200.0 mg/kg/injection, schedule: Q01DX009 (ip), vehicle: Klucel (hydroxypropylcellulose) (HPC) 100 % of control

Cc1ccc(NC(=O)NCc2ccncc2)cc1NC(=O)NCc1ccncc1
inactive: [16] 112 % of control | [17] 110 % of control

C=CC1C(OC2OC(CO)C(O)C(O)C2O)OC=C(C(=O)OC)C1CC1CC(=O)CC(CC(=O)CCc2ccc(O)cc2)O1 (centres undefined)
inactive: dose: 18.75 mg/kg/injection, schedule: Q01DX005 (ip), vehicle: water 98 % of control | dose: 37.5 mg/kg/injection, schedule: Q01DX005 (ip), vehicle: water 101 % of control | dose: 75.0 mg/kg/injection, schedule: Q01DX005 (ip), vehicle: water 101 % of control | dose: 150.0 mg/kg/injection, schedule: Q01DX005 (ip), vehicle: water 101 % of control

COC1=C(OC)C(=O)C(C(=O)CCCCC(=O)O)=C(C)C1=O
inactive: [11] 107 % of control | [14] 101 % of control | [15] 107 % of control

c1cc(-c2cc(-c3cc(-c4ccncc4)n[nH]3)[nH]n2)ccn1
inactive: dose: 60.0 mg/kg/injection, schedule: Q01DX005 (ip), vehicle: Klucel + Tween-80 91 % of control | dose: 120.0 mg/kg/injection, schedule: Q01DX005 (ip), vehicle: Klucel + Tween-80 100 % of control | dose: 240.0 mg/kg/injection, schedule: Q01DX005 (ip), vehicle: Klucel + Tween-80 91 % of control

CO[C@@]12[C@H](COC(N)=O)C3=C(C(=O)C(C)=C(NCCO)C3=O)N1C[C@@H]1N[C@@H]12
inactive: dose: 12.5 mg/kg/injection, schedule: Q01DX009 (ip), vehicle: saline sonified 95 % of control | [12] 100 % of control | dose: 25.0 mg/kg/injection, schedule: Q01DX009 (ip), vehicle: saline sonified 95 % of control | [13] 100 % of control | dose: 50.0 mg/kg/injection, schedule: Q01DX009 (ip), vehicle: saline sonified 95 % of control | dose: 50.0 mg/kg/injection, schedule: Q04DX003 (ip), vehicle: saline with Tween-80 100 % of control
